In patent US20150352116A1, “HDAC INHIBITOR AND BTK INHIBITOR COMBINATIONS” (Pharmacyclics LLC, priority 2014, published 2015):

Assays:
Type in all cases: cell-based
[1] = test system: CLL cells; experiment: sensitivity of CLL cells from extended-lymphocytosis or ibrutinib-resistant samples (FIG. 7); conditions: samples with extended lymphocytosis or that develop resistance to Ibrutinib
Experimental: (§1) FIG. 1A illustrates a nanostring miRNA expression data table. […] FIG. 1B illustrates HDAC1 knockdown in CLL cells. FIG. 2A illustrates a human BTK mRNA map. […] FIG. 2C illustrates a miRNA map. HDAC inhibition is associated with the accumulation of activating chromatin modifications (H3K4me3) that promote gene re-expression. FIG. 3A illustrates a miRNA expression data table. FIG. 3B illustrates miRNA expression in the presence or absence of 0.4 μM Abexinostat in unmutated 17p CLL. […] FIG. 5 illustrates an annexin apoptosis assay on CLL cells. […] FIG. 6 illustrates survival after leukemia in a TCL-1 mouse model. […] FIG. 9 illustrates an annexin apoptosis assay on CLL cells. […] FIG. 10 illustrates the expression of phosphorylated BTK Y223 in the presence of Abexinostat in AML cells.

[2] = test system: Btk-directed miRNA; experiment: miRNA expression in unmutated 17p CLL; conditions: 0.4 μM Abexinostat, unmutated 17p (high risk) CLL, FIG. 3B
Experimental: FIG. 3A illustrates a miRNA expression data table. FIG. 3B illustrates miRNA expression in the presence or absence of 0.4 μM Abexinostat in unmutated 17p CLL.
as §1

[3] = test system: CLL cells; experiment: annexin apoptosis assay on CLL cells
Description: FIG. 5 illustrates an annexin apoptosis assay on CLL cells.
FIG. 9 illustrates an annexin apoptosis assay on CLL cells.
as §1

For `CN(C)Cc1c(C(=O)NCCOc2ccc(C(=O)NO)cc2)oc2ccccc12` [Abexinostat, 3-[(Dimethylamino)methyl]-N-{2-[4-(hydroxycarbamoyl)phenoxy]ethyl}-1-benzofuran-2-carboxamide], the “sensitivity of CLL cells to Abexinostat” value [1] was “retaining sensitivity”, the “effect on miRNA expression” value [2] was “de-repression of Btk-directed miRNA” and the “killing of CLL cells (annexin apoptosis), combination effect” value ([3]; Abexinostat in combination with ibrutinib, FIG. 5) was “synergized with ibrutinib to kill CLL cells”. The “sensitivity of CLL cells to Abexinostat (annexin apoptosis)” value ([3]; samples with extended lymphocytosis or that develop resistance to Ibrutinib, FIG. 9) was “retain sensitivity”.
